{"source": "paper PMC12655579", "about": "“Cocrystallization of Ezetimibe with Organic Acids: Stoichiometric Optimization for Improved Solubility and Bioavailability” (Pharmaceutics, 2025)", "key": {"[1]": {"assay": "In vitro dissolution (USP apparatus II, paddle)", "assay_type": "physicochemical", "details": "0.45% w/v SLS in 0.05 M acetate buffer pH 4.5, 37 °C", "experimental": "The samples were mixed in a 5 mL tube with 2 mL of the solvent at a concentration of 1 mg/mL using a multi-mixer (SLRM-3, Seoulin Biosciences, Pangyo, Republic of Korea) for 48 h at 25 °C. The mixtures were then centrifuged at 13,000 rpm for 10 min (Eppendorf 5425R, Hamburg, Germany) and manually filtered using a 0.45 μm polytetrafluoroethylene (PTFE-H) syringe filter. The absorbance of the filtered samples at 233 nm was measured using a UV-VIS spectrophotometer. Similarly, dissolution was assessed using the USP dissolution apparatus II (paddle) (Varian 705 DS, Cary, NC, USA) at 50 rpm in 500 mL of 0.45% w/v SLS in 0.05 M acetate buffer (pH 4.5) at 37 ± 0.5 °C. The cocrystal samples (equivalent to 10 mg ezetimibe) were weighed and added into the dissolution vessel (n = 3). Aliquots were collected at predetermined time points: 5 min, 10 min, 15 min, 30 min, 45 min, 60 min, 90 min, and 120 min. The displaced volume was replenished with fresh buffer after each sampling. The collected samples were filtered through a 0.45 µm RC syringe filter and subjected to UV-VIS spectrophotometer."}, "[2]": {"assay": "In vivo pharmacokinetics after single oral gavage", "details": "rat, male Sprague Dawley rats, fasted, plasma, table prints dose 10 mg/kg for all groups (methods: CRYS101 10 mg/kg, CRYS102-104 30 mg/kg)", "experimental": "The stock standard solution was prepared by dissolving ezetimibe at 0.5 mg/mL in 40% MeOH. The absorbance of the standards was measured at 233 nm using UV-VIS spectrophotometer (Optizen pop, Mecasys®, Seoul, Republic of Korea). The bioanalysis was performed using validated LC-MS/MS methods with MRM detection (details in Supplementary Materials). The method was developed using an Agilent 1290 Infinity II BioLC system coupled with an Agilent 6495D Triple-Quadrupole mass spectrometer, employing electrospray ionization (ESI). Chromatographic separation was achieved on a Kintex C18 column (2.6 μm, 100 × 3 mm) maintained at 30 °C, using an isocratic mobile phase of water-acetonitrile (20:80 v/v) at 0.25 mL/min flow rate. The run time was optimized to 5 min with a 2 μL injection volume. Mass spectrometric detection utilized multiple reaction monitoring (MRM) in negative polarity mode for ezetimibe ([M − H]^− m/z 408.1 → 271.1) and positive mode for the internal standard itraconazole ([M + H]^+ m/z 705.2 → 391.6). Detailed description is included in the Supplementary Materials.\nIn vivo pharmacokinetic profile of ezetimibe cocrystal formulations was assessed in male Sprague Dawley rats (n = 4 per group, 7–8-week-old, mean weight 271.1 g). The SD rats were obtained from G-Bio (Gwangju, Republic of Korea). They were maintained under a 12 h light/dark cycle and provided with free access to food and water. The animal experimental protocol was approved by the Institutional Animal Care and Use Committee (IACUC) of Mokpo National University (Mokpo, Republic of Korea; approval no. MNU-IACUC-2025-015).\nThe rats were fasted overnight before oral administration, and four formulation groups received single oral doses through gavage: Group 1 (CRYS101) at 10 mg/kg and Groups 2–4 (CRYS102-104) at 30 mg/kg. Blood samples (200 μL) were collected from the femoral artery at predetermined time points after the administration. The collected samples were centrifuged at 16,000× g for 5 min at 4 °C, and the plasma was stored at −70 °C until analysis. The plasma samples analyzed using a validated UPLC-MS/MS method with 1 ng/mL lower quantification limit."}}, "data": [{"molecule": "O=C1[C@H](CC[C@H](O)c2ccc(F)cc2)[C@@H](c2ccc(O)cc2)N1c1ccc(F)cc1", "note": "[Ezetimibe]", "values": [{"measurement": "In vitro release at 120 min", "setting": "[1]", "value": 45, "unit": "%"}, {"measurement": "AUC(0-inf)", "setting": "[2]; SD not determined", "value": 41.8, "unit": "ng·h/mL"}, {"measurement": "AUC(0-t)", "setting": "[2]; n = 4/group, mean ± SD", "value": "11 ± 8.63", "unit": "ng·h/mL"}, {"measurement": "Cmax", "setting": "[2]; n = 4/group, mean ± SD", "value": "6.73 ± 4.29", "unit": "ng/mL"}, {"measurement": "Tmax", "setting": "[2]; n = 4/group, mean ± SD", "value": "1.33 ± 0.76", "unit": "h"}]}]}
